# Assay results taken from patent US12629322B2, “Antiseptic compositions” (RHT LIMITED, priority 2020, dated 2026).
# Legend:
# [1] = system: PolySeed BOD Seed Inoculum (blend of broad spectrum bacteria); experiment: Volatility test (duration of bacteria inhibition on agar plate, swab viable count); assay type: cell-based
# Method: To study the duration on ability of bacteria inhibition of an exemplary composition, a volatility test is performed.
# • Group A: Agar plate with 0.5 mL distilled water; • Group B: Agar plate with 0.5 mL 75% isopropyl alcohol (IPA); • Group C: Agar plate with 0.5 g of tested exemplary composition. • Bacteria strain used: PolySeed® BOD Seed Inoculum Capsules (1 capsule dissolved into 500 mL Distilled Water) (Interlab) • Agar: Trypticase Soy Agar (TSA) • Incubation condition: 48 hours at 30±1° C. Testing Procedure
# 0.5 mL bacteria solution is add into the agar plate groups A, B and C at the time interval of Tx. as defined in Table 1.3.
# After T10, bacteria solution is spiked to all the agar plates except agar blank.
# Swab test is carried out to test for the viable count of bacteria at the time interval Tx.
# [2] = system: PolySeed BOD Seed Inoculum (blend of broad spectrum bacteria); experiment: Durability test of bacteria inhibition (repeated spiking of bacteria on agar plate, swab viable count); assay type: cell-based; settings: bacteria spiked every 60 minutes
# Method: To evaluate the durability of bacteria inhibition of the exemplary compositions, durability test by regularly spiking a fixed amount of bacteria into the sample is performed and the procedures are incorporated herein by reference.
# • Group A: Agar plate with 0.5 mL distilled water; • Group B: Agar plate with 0.5 mL 75% isopropyl alcohol (IPA); • Group C: Agar plate with 0.5 g of tested exemplary composition.
# Bacteria strain used: PolySeed® BOD Seed Inoculum Capsules (1 capsule dissolved into 500 mL Distilled Water) (Interlab), which contains a blend of broad spectrum bacteria designed specifically as a seed inoculum for the Biochemical Oxygen Demand (BOD 5) test as conducted in accordance to Standard Methods of the Examination of Water and Wastewater. PolySeed® is an EPA approved BOD 5 seed inoculum that has been used to seed both municipal and industrial wastes for almost 20 years. • Agar: Trypticase Soy Agar (TSA) • Incubation condition: 48 hours at 30±1° C. • Testing Procedure
# The above three sample group agar plates are used as the sample matrices of different initial situation for spiking 0.5 ml bacteria solution for every 60 minutes, i.e.: there was an on-going process of spiking bacteria at time 0, 60, 120, 180, 240, 300 minutes;
# A swab testing is carried out every 30 minutes from matrix samples of each group to test for the viable count of bacteria at the time interval.
# Example of sample with sequence in time: • AM: 0.5 ml bacteria solution is added at T0−10 min; • Sample A1: To swab from AM at T0; Sample A2: To swab from AM at T1; • AM: 0.5 ml bacteria solution is added at T2−10 min; • Sample A3: To swab from AM at T2; Sample A4: To swab from AM at T3; • AM: 0.5 ml bacteria solution is added at T4−10 min; and so forth. Table 2 summarized the testing schedule for durability test.
substance,measurement,setting,value
75% isopropyl alcohol [75% IPA],"Viable count of bacteria, volatility test",[1]; T0 (0 min),54 CFU/plate
same,"Viable count of bacteria, volatility test",[1]; T1 (30 min),62 CFU/plate
same,"Viable count of bacteria, volatility test",[1]; T2 (60 min),50 CFU/plate
same,"Viable count of bacteria, volatility test",[1]; T3 (90 min),45 CFU/plate
same,"Viable count of bacteria, volatility test",[1]; T4 (120 min),49 CFU/plate
same,"Viable count of bacteria, volatility test",[1]; T5 (150 min),55 CFU/plate
same,"Viable count of bacteria, volatility test",[1]; T6 (180 min),43 CFU/plate
same,"Viable count of bacteria, volatility test",[1]; T7 (210 min),37 CFU/plate
same,"Viable count of bacteria, volatility test",[1]; T8 (240 min),44 CFU/plate
same,"Viable count of bacteria, volatility test",[1]; T9 (270 min),49 CFU/plate
same,"Viable count of bacteria, volatility test",[1]; T10 (300 min),0 CFU/plate
same,"Viable count of bacteria, durability test",[2]; T0 (0 min),8 CFU/plate
same,"Viable count of bacteria, durability test",[2]; T1 (30 min),28 CFU/plate
same,"Viable count of bacteria, durability test",[2]; T2 (60 min),53 CFU/plate
same,"Viable count of bacteria, durability test",[2]; T3 (90 min),89 CFU/plate
same,"Viable count of bacteria, durability test",[2]; T4 (120 min),254 CFU/plate
same,"Viable count of bacteria, durability test",[2]; T5 (150 min),346 CFU/plate
